Measured values taken from patent US11959083B2, “Immunosuppression-reverting oligonucleotides inhibiting the expression of CD39” (Secarna Pharmaceuticals GmbH & Co. KG, priority 2016, dated 2024).
l = locked nucleic acid (LNA); d = 2'-deoxy (DNA)

Experiments:
Assay type in all cases: cell-based, human
hCD39 mRNA [1] = experiment: IC50 determination / concentration-dependent hCD39 mRNA knockdown in HDLM-2 cells; details: for mRNA inhibition: HDLM-2, 3 days, Table 8
Summary of the method: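 Antisense oligonucleotides applied to HDLM-2 cells for 3 days, titrated 10 μM down to 4.5 nM. hCD39 mRNA normalized to HPRT1 and expressed as residual level relative to untreated cells (100); mean of triplicates, IC50 from concentration-response.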

hCD39 mRNA [2] = experiment: hCD39 mRNA knockdown efficacy screen in A-172 cells (single dose, gymnotic delivery, QuantiGene Singleplex); details: 10 μM, 3 days, normalized to HPRT1
Summary of the method: (§1)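 Antisense oligonucleotides given once at 10 μM without transfection reagent (gymnotic) to HDLM-2 or A-172 cells for 3 days. hCD39 mRNA measured by QuantiGene Singleplex, normalized to HPRT1 and expressed relative to untreated cells; triplicate means.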

HDLM-2 cells = experiment: Viability of HDLM-2 cells (7-AAD, flow cytometry); details: three, four and six days, different concentrations
Method: (§2) HDLM-2 cells were therefore treated with different concentrations of the respective antisense oligonucleotide for three, four and six days, respectively. Protein expression was analyzed by flow cytometry using the CD39 antibody (clone A1) and 7-AAD to investigate viability. […] Table 13summarizes protein knockdown efficiency of the selected human CD39 antisense oligonucleotides A04040H (SEQ ID No. 3) and A04045H (SEQ ID No. 4) in HDLM-2 cells at different time points: […]

hCD39 protein = experiment: Concentration- and time-dependent hCD39 protein knockdown in HDLM-2 cells (flow cytometry); details: for Inhibition [%] (Protein/mRNA): HDLM-2, CD39 protein
Method: FIG. 8 depicts concentration- and time-dependent CD39 protein knockdown by A04040H (SEQ ID No. 3) and A04045H (SEQ ID No. 4). Analysis of CD39 protein expression by flow cytometry in HDML-2 cells is given after treatment with the indicated antisense oligonucleotides for 3, 4 and 6 days. As treatment control, cells were treated with neg1 for 3, 4 and 6 days at the indicated concentrations. Relative expression compared to untreated control cells (=1) is depicted.
as §2

hCD39 mRNA [3] = experiment: hCD39 mRNA knockdown efficacy screen in HDLM-2 cells (single dose, gymnotic delivery, QuantiGene Singleplex); parameters: key to Relative hCD39 mRNA expression (compared to non-treated cells): *: values are below detection limit; details: 10 μM, 3 days
Summary of the method: as §1

Substance: +C*+A*+C*T*T*A*C*G*T*T*C*A*C*T*+A*+C*+C (antisense CACTTACGTTCACTACC; sugars from the 5' end l3 d11 l3, all phosphorothioate, methylation of C not given here) [A04045H]
- mRNA inhibition (hCD39 mRNA [1]; 0.0045 μM): 30.70%
- mRNA inhibition (hCD39 mRNA [1]; 0.013 μM): 33.03%
- mRNA inhibition (hCD39 mRNA [1]; 0.04 μM): 54.20%
- mRNA inhibition (hCD39 mRNA [1]; 0.12 μM): 73.62%
- mRNA inhibition (hCD39 mRNA [1]; 0.4 μM): 87.63%
- mRNA inhibition (hCD39 mRNA [1]; 1.1 μM): 95.07%
- mRNA inhibition (hCD39 mRNA [1]; 3.3 μM): 97.44%
- mRNA inhibition (hCD39 mRNA [1]; 10 μM): 99.19%
- maximal target inhibition (hCD39 mRNA) (hCD39 mRNA [1]; HDLM-2 cells, compared to untreated cells, first IC50 determination): 99.2%
- IC50 (hCD39 mRNA [1]; HDLM-2 cells, hCD39 mRNA, 3 days, first screening round (Table 8)): 66.8 nM
- Mean hCD39 mRNA expression (relative to untreated cells set as 1) (hCD39 mRNA [2]; first screening round): 0.16
- Relative hCD39 mRNA expression (compared to non-treated cells) (hCD39 mRNA [2]; second screening round): 0.08
- viability of HDLM-2 cells (HDLM-2 cells): did not affect viability
- Inhibition [%] (Protein/mRNA) (hCD39 protein; Day 3, 0.1 μM): 38.81%
- Inhibition [%] (Protein/mRNA) (hCD39 protein; Day 3, 0.5 μM): 50.37%
- Inhibition [%] (Protein/mRNA) (hCD39 protein; Day 3, 1 μM): 51.53%
- Inhibition [%] (Protein/mRNA) (hCD39 protein; Day 3, 10 μM): 54.88%
- Inhibition [%] (Protein/mRNA) (hCD39 protein; Day 4, 0.1 μM): 61.88%
- Inhibition [%] (Protein/mRNA) (hCD39 protein; Day 4, 0.5 μM): 73.20%
- Inhibition [%] (Protein/mRNA) (hCD39 protein; Day 4, 1 μM): 75.55%
- Inhibition [%] (Protein/mRNA) (hCD39 protein; Day 4, 10 μM): 78.72%
- Inhibition [%] (Protein/mRNA) (hCD39 protein; Day 6, 0.1 μM): 80.24%
- Inhibition [%] (Protein/mRNA) (hCD39 protein; Day 6, 0.5 μM): 89.53%
- Inhibition [%] (Protein/mRNA) (hCD39 protein; Day 6, 1 μM): 90.46%
- Inhibition [%] (Protein/mRNA) (hCD39 protein; Day 6, 10 μM): 94.06%
- inhibition of hCD39 protein (hCD39 protein; HDLM-2 cells, three, four and six days, different concentrations): potent inhibition of hCD39 protein after all indicated time points
- Mean hCD39 mRNA expression normalized to HPRT1 relative to untreated control = 1 (hCD39 mRNA [3]; first screening round): 0.09
- Relative hCD39 mRNA expression (compared to non-treated cells) (hCD39 mRNA [3]; second screening round, normalized to HPRT1): *
